The source of these data is patent US12024507B2, “Compounds as GLP-1R agonists” (Terns Pharmaceuticals, Inc., priority 2021, dated 2024).

The nature of data set [1]: Passive permeability and efflux ratio in Caco-2 cell monolayers. The following applies: human, Caco-2, 5 μM, pH 7.4, 120 minutes; for Papp A→B at 120 min, 5 μM: apical to basolateral; for Papp B→A at 120 min, 5 μM: basolateral to apical. In kind it is in vitro ADME. The protocol: Caco-2 cells (clone C2BBe1) were obtained from American Type Culture Collection (Manassas, VA). Cell monolayers were grown to confluence on collagen-coated, microporous membranes in 12-well assay plates. Details of the plates and their certification are shown below. The permeability assay buffer was Hanks' balanced salt solution containing 10 mM HEPES and 15 mM glucose at a pH of 7.4. The buffer in the receiver chamber also contained 1% bovine serum albumin. The dosing solution concentration was 5 μM of test article in the assay buffer. Cell monolayers were dosed on the apical side (A-to-B) or basolateral side (B-to-A) and incubated at 37° C. with 5% CO2 in a humidified incubator. Samples were taken from the donor and receiver chambers at 120 minutes. Each determination was performed in duplicate. The flux of lucifer yellow was also measured post-experimentally for each monolayer to ensure no damage was inflicted to the cell monolayers during the flux period. All samples were assayed by LC-MS/MS using electrospray ionization. The apparent permeability (Papp) and percent recovery were calculated as follows: Papp=(dCr/dt)×Vr/(A×CA) (1) Percent Recovery=100×((Vr×Cr^final)+(Vd×Cd^final))/(Vd×CN) (2), where, dCr/dt is the slope of the cumulative receiver concentration versus time in μM s^−1; Vr is the volume of the receiver compartment in cm^3; Vd is the volume of the donor compartment in cm^3; A is the area of the insert (1.13 cm^2 for 12-well); CA is the average of the nominal dosing concentration and the measured 120-minute donor concentration in μM; CN is the nominal concentration of the dosing solution in μM; Cr^final is the cumulative receiver concentration in μM at the end of the incubation period; Cd^final is the concentration of the donor in μM at the end of the incubation period. Efflux ratio (ER) is defined as Papp (B-to-A)/Papp (A-to-B).
In general terms: Caco-2 cells form a polarised layer with tight junctions and transporters.

A short description of data set [2]: Metabolic stability in human hepatocytes. The following applies: cryopreserved hepatocytes, 1×10^6 cells/mL; for CLint scaled at 1 μM: intrinsic clearance; for half-life at 1 μM: read-out: Human T1/2. In kind it is in vitro ADME. The protocol: Test compounds were incubated in rat and human hepatocytes and stability was assessed from the substrate […] approach. Test compounds were dissolved in dimethyl sulfoxide (DMSO) to create a 10 mM Stock, and then further diluted to create a 1000×Working Stock of 1 mM with DMSO in 96-well plates for test compounds and the positive control (midazolam). Vials containing cryopreserved hepatocytes were removed from the liquid nitrogen tank and immediately immersed in a 37° C. water bath. The vials were shaken gently until the contents had thawed and were then immediately emptied into 48 mL of pre-warmed HT Medium in a 50 mL conical tube. Cells remaining in the vial were resuspended with 1.0 mL of pre-warmed HT Medium and added to the conical tube. The tube was capped and then gently inverted several times to resuspend the hepatocytes. The cell suspension was centrifuged at 50×g at room temperature for 5 minutes and the supernatant discarded. The cell pellet was loosened by gently swirling the centrifuge tube and was re-suspended in 4 mL of warm Dulbecco's Modified Eagle medium (DMEM). Cell density was determined by a cell counter by Nexcelom, and DMEM medium was added to obtain a target density of 1×10^6 cells/mL. The assay was carried out in 96-well microtiter plates. Test Compounds were incubated at 1 μM with 1×10^6 cells/mL hepatocytes in DMEM for 0, 30, 60, 120 and 240 minutes. The incubation was carried out with gentle shaking at 37° C. under a humid atmosphere of 95% air/5% CO2. The volume of the incubation mixture was 37 μL with a final 0.1% DMSO. At each of the time points, the incubation was stopped by adding 150 μL quenching solution (100% acetonitrile, 0.1% formic acid containing bucetin as an internal standard for positive ESI mode). Subsequently, the mixtures were vortexed for 20 min and centrifuged at 4,000 RPM at 10° C. The supernatant (80 μL) was transferred to a clean 96-well plate and analyzed by LC-MS/MS. Midazolam at 1 μM with a final 0.1% DMSO was included as a positive control to verify assay performance. The percent parent remaining, intrinsic and predicted hepatic clearance and t1/2 were calculated. All samples were analyzed by LC-MS/MS using an AB Sciex API 4000 instrument, coupled to a Shimadzu LC-20AD LC Pump system. Separation was achieved using a Waters Atlantis T3 dC18 reverse phase HPLC column (20 mm×2.1 mm) at a flow rate of 0.5 mL/min. The mobile phase consisted of 0.1% formic acid in water (solvent A) and 0.1% formic acid in 100% acetonitrile (solvent B). Elution conditions are detailed below.
The ion optics of each test compound were optimized for their declustering potential (DP), […] (CE), collision-cell exit potential (CXP) and used in a selected ion monitoring experiment in the positive ion mode. The peak area ratio of each test compound to internal standard was then evaluated for stability. The extent of metabolism was calculated based on the disappearance of the test compound, compared to its initial concentration. The initial rates of clearance of the test compound were calculated using the linear regression plot of semi-log % remaining of the compound versus time.
The predicted hepatic clearance (CLhep) was calculated using the well stirred method with the following formula with CLint(in vivo) normalized based on liver weight: CLint(in vivo)=CLint×Hepatocellularity×liver weight CLhep predicted=(CLint(in vivo)×Qliver)/(CLint(in vivo)+Qliver) Where Qliver ((ml/min/kg) is Liver Blood Flow
The relevant physiological parameters of liver weight, blood flow, and hepatocellularity for various species are listed below:
Results are presented in the Table B3 below for the intrinsic clearance (mL/min/kg) and half-life (t1/2).

Broadly, the Papp A→B is the apparent permeability from the apical to the basolateral side of a cell layer. By Papp B→A is commonly meant how fast a substance crosses the layer from the basolateral side. What is called CLint scaled is the rate of metabolic loss divided by the concentration. A lower CLint scaled goes with greater metabolic stability. Turning to `N#Cc1ccc(COc2cccc(C3CCN(Cc4nc5ccc(-c6nc(=O)[nH]o6)cc5n4Cc4cncs4)CC3)n2)c(F)c1` [Compound 13, 3-fluoro-4-(((6-(1-((6-(3-oxo-2,3-dihydro-1,2,4-oxadiazol-5-yl)-1-(thiazol-5-ylmethyl)-1H-benzo[d]imidazol-2-yl)methyl)piperidin-4-yl)pyridin-2-yl)oxy)methyl)benzonitrile], in data set [1], the Papp A→B at 120 min, 5 μM worked out at 46.9 ×10⁻⁶ cm/s and the Papp B→A at 120 min, 5 μM is 51.1 ×10⁻⁶ cm/s. In data set [2], the CLint scaled at 1 μM came to 35.8 ± 1.06 mL/min/kg and the half-life at 1 μM was 1.12 ± 0.0332 h.

Turning to `N#Cc1ccc(COc2cccc(C3CCN(Cc4nc5ccc(-c6nnn[nH]6)cc5n4C[C@@H]4CCO4)CC3)n2)c(F)c1` [Compound 8], in data set [1], the Papp A→B at 120 min, 5 μM amounted to 1.8 ×10⁻⁶ cm/s and the Papp B→A at 120 min, 5 μM was 18.8 ×10⁻⁶ cm/s. Moreover, in data set [2], the CLint scaled at 1 μM amounted to 7.99 ± 0.99 mL/min/kg and the half-life at 1 μM stood at 5.02 ± 0.623 h.
